Assays:
persian speedwell [1] = assay: Test Example 4: herbicidal effect by soil treatment (Table 19, symbol R); format: in vivo, Persian speedwell (Veronica persica); settings: amount of applied herbicide 320 g/ha
How it was run: (§1)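 Scoring uses the grading scale of an earlier test, three weeks post-application. Treatment consists of spraying a diluted emulsion formulation across the surface of sterilized diluvial soil in which seeds are buried near 1.5 cm deep; boxes are kept in a greenhouse between 25° C. and 30° C.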

Chinese sprangletop = assay: Test Example 3: herbicidal effect by foliage application, Wagner pot (Table 18, symbol D); format: in vivo, chinese sprangletop (Leptochloa chinensis); settings: 320 g/ha
How it was run: (§2)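 Plants were sown in alluvial soil held under 0.1–0.5 cm standing water and grown 14 days in a greenhouse at 25–30 °C. An emulsifiable formulation, water-diluted to the set dose, was then sprayed onto the foliage, and effects were scored three weeks later using previously defined criteria.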

redroot pigweed [2] = assay: Test Example 4: herbicidal effect by soil treatment (Table 19, symbol N); format: in vivo, redroot pigweed (Amaranthus retroflexus); settings: amount of applied herbicide 320 g/ha
How it was run: as §1

redroot pigweed [3] = assay: Test Example 5: herbicidal effect by foliage application, plastic box (Table 20, symbol N); format: in vivo, redroot pigweed (Amaranthus retroflexus); settings: 320 g/ha, foliage application after 14-day growth, evaluated three weeks after application
How it was run: (§3)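 Post-emergence foliar test in sterilized diluvial soil. Compound applied as water-diluted emulsion at a predetermined rate to 14-day-old plants; evaluation at three weeks.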

southern crabgrass [4] = assay: Test Example 4: herbicidal effect by soil treatment (Table 19, symbol F); format: in vivo, southern crabgrass (Digitaria ciliaris); settings: amount of applied herbicide 320 g/ha
How it was run: as §1

barnyard grass [5] = assay: Test Example 5: herbicidal effect by foliage application, plastic box (Table 20, symbol H); format: in vivo, barnyard grass (Echinochloa crus-galli); settings: 320 g/ha
How it was run: as §3

Italian ryegrass [6] = assay: Test Example 4: herbicidal effect by soil treatment (Table 19, symbol K); format: in vivo, Italian ryegrass (Lolium multiflorum); settings: amount of applied herbicide 320 g/ha
How it was run: as §1

lambsquarters [7] = assay: Test Example 5: herbicidal effect by foliage application, plastic box (Table 20, symbol O); format: in vivo, lambsquarters (Chenopodium album); settings: 320 g/ha
How it was run: as §3

blackgrass [8] = assay: Test Example 5: herbicidal effect by foliage application, plastic box (Table 20, symbol J); format: in vivo, blackgrass (Alopecurus myosuroides); settings: 320 g/ha
How it was run: as §3

blackgrass [9] = assay: Test Example 4: herbicidal effect by soil treatment (Table 19, symbol J); format: in vivo, blackgrass (Alopecurus myosuroides); settings: amount of applied herbicide 320 g/ha
How it was run: as §1

chickweed = assay: Test Example 4: herbicidal effect by soil treatment (Table 19, symbol P); format: in vivo, common chickweed (Stellaria media); settings: amount of applied herbicide 320 g/ha
How it was run: as §1

windgrass [10] = assay: Test Example 5: herbicidal effect by foliage application, plastic box (Table 20, symbol L); format: in vivo, windgrass (Apera spica-venti); settings: 320 g/ha
How it was run: as §3

velvetleaf [11] = assay: Test Example 5: herbicidal effect by foliage application, plastic box (Table 20, symbol M); format: in vivo, velvetleaf (Abutilon theophrasti); settings: 320 g/ha
How it was run: as §3

barnyard grass [12] = assay: Test Example 4: herbicidal effect by soil treatment (Table 19, symbol H); format: in vivo, barnyard grass (Echinochloa crus-galli); settings: amount of applied herbicide 320 g/ha
How it was run: as §1

windgrass [13] = assay: Test Example 4: herbicidal effect by soil treatment (Table 19, symbol L); format: in vivo, windgrass (Apera spica-venti); settings: amount of applied herbicide 320 g/ha
How it was run: as §1

green foxtail [14] = assay: Test Example 5: herbicidal effect by foliage application, plastic box (Table 20, symbol G); format: in vivo, green foxtail (Setaria viridis); settings: 320 g/ha
How it was run: as §3

persian speedwell [15] = assay: Test Example 5: herbicidal effect by foliage application, plastic box (Table 20, symbol R); format: in vivo, Persian speedwell (Veronica persica); settings: 320 g/ha
How it was run: as §3

green foxtail [16] = assay: Test Example 4: herbicidal effect by soil treatment (Table 19, symbol G); format: in vivo, green foxtail (Setaria viridis); settings: amount of applied herbicide 320 g/ha
How it was run: as §1

southern crabgrass [17] = assay: Test Example 5: herbicidal effect by foliage application, plastic box (Table 20, symbol F); format: in vivo, southern crabgrass (Digitaria ciliaris); settings: 320 g/ha
How it was run: as §3

Italian ryegrass [18] = assay: Test Example 5: herbicidal effect by foliage application, plastic box (Table 20, symbol K); format: in vivo, Italian ryegrass (Lolium multiflorum); settings: 320 g/ha
How it was run: as §3

wild oat [19] = assay: Test Example 4: herbicidal effect by soil treatment (Table 19, symbol I); format: in vivo, wild oat (Avena fatua); settings: amount of applied herbicide 320 g/ha
How it was run: as §1

wild oat [20] = assay: Test Example 5: herbicidal effect by foliage application, plastic box (Table 20, symbol I); format: in vivo, wild oat (Avena fatua); settings: 320 g/ha
How it was run: as §3

lambsquarters [21] = assay: Test Example 4: herbicidal effect by soil treatment (Table 19, symbol O); format: in vivo, lambsquarters (Chenopodium album); settings: amount of applied herbicide 320 g/ha
How it was run: as §1

rice flat sedge = assay: Test Example 3: herbicidal effect by foliage application, Wagner pot (Table 18, symbol E); format: in vivo, rice flat sedge (Cyperus iria); settings: 320 g/ha
How it was run: as §2

velvetleaf [22] = assay: Test Example 4: herbicidal effect by soil treatment (Table 19, symbol M); format: in vivo, velvetleaf (Abutilon theophrasti); settings: amount of applied herbicide 320 g/ha
How it was run: as §1

barnyard grass [23] = assay: Test Example 3: herbicidal effect by foliage application, Wagner pot (Table 18, symbol H); format: in vivo, barnyard grass (Echinochloa crus-galli); settings: 320 g/ha
How it was run: as §2

[24] = foliage application after 14-day growth, evaluated three weeks after application
[25] = foliage application, three weeks after application

## CCOc1cccc(-c2sc3c(Cl)cccc3c2-c2c(O)c(C)nn(C)c2=O)c1 [4-066]
Persian speedwell [1]
  Herbicidal effect by soil treatment, R: persian speedwell: 4 (Herbicidal rate of 70% or more and less than 90%)
Chinese sprangletop
  herbicidal effect on Chinese sprangletop (D): 0 (Herbicidal rate of 5% or less (almost no effect))
Redroot pigweed [2]
  Herbicidal effect by soil treatment, N: redroot pigweed: 0 (Herbicidal rate of 5% or less (almost no effect))
Redroot pigweed [3]
  herbicidal effect on N: redroot pigweed (evaluation grade 0-5): 4 (Herbicidal rate of 70% or more and less than 90%)
Southern crabgrass [4]
  Herbicidal effect by soil treatment, F: southern crabgrass: 0 (Herbicidal rate of 5% or less (almost no effect))
Barnyard grass [5]; [24]
  herbicidal effect on H: barnyard grass (evaluation grade 0-5): 3 (Herbicidal rate of 40% or more and less than 70%)
Italian ryegrass [6]
  Herbicidal effect by soil treatment, K: Italian ryegrass: 0 (Herbicidal rate of 5% or less (almost no effect))
Lambsquarters [7]; [24]
  herbicidal effect on O: lambsquarters (evaluation grade 0-5): 3 (Herbicidal rate of 40% or more and less than 70%)
Blackgrass [8]; [24]
  herbicidal effect on J: blackgrass (evaluation grade 0-5): 0 (Herbicidal rate of 5% or less (almost no effect))
Blackgrass [9]
  Herbicidal effect by soil treatment, J: blackgrass: 0 (Herbicidal rate of 5% or less (almost no effect))
chickweed
  Herbicidal effect by soil treatment, P: chickweed: 0 (Herbicidal rate of 5% or less (almost no effect))
Windgrass [10]; [24]
  herbicidal effect on L: windgrass (evaluation grade 0-5): 0 (Herbicidal rate of 5% or less (almost no effect))
Velvetleaf [11]; [24]
  herbicidal effect on M: velvetleaf (evaluation grade 0-5): 4 (Herbicidal rate of 70% or more and less than 90%)
Barnyard grass [12]
  Herbicidal effect by soil treatment, H: barnyard grass: 0 (Herbicidal rate of 5% or less (almost no effect))
Windgrass [13]
  Herbicidal effect by soil treatment, L: windgrass: 0 (Herbicidal rate of 5% or less (almost no effect))
Green foxtail [14]; [24]
  herbicidal effect on G: green foxtail (evaluation grade 0-5): 1 (Herbicidal rate of 5% or more and less than 20%)
Persian speedwell [15]; [24]
  herbicidal effect on R: persian speedwell (evaluation grade 0-5): 3 (Herbicidal rate of 40% or more and less than 70%)
Green foxtail [16]
  Herbicidal effect by soil treatment, G: green foxtail: 0 (Herbicidal rate of 5% or less (almost no effect))
Southern crabgrass [17]; [24]
  herbicidal effect on F: southern crabgrass (evaluation grade 0-5): 0 (Herbicidal rate of 5% or less (almost no effect))
Italian ryegrass [18]; [24]
  herbicidal effect on K: Italian ryegrass (evaluation grade 0-5): 3 (Herbicidal rate of 40% or more and less than 70%)
Wild oat [19]
  Herbicidal effect by soil treatment, I: wild oat: 0 (Herbicidal rate of 5% or less (almost no effect))
Wild oat [20]; [24]
  herbicidal effect on I: wild oat (evaluation grade 0-5): 0 (Herbicidal rate of 5% or less (almost no effect))
Lambsquarters [21]
  Herbicidal effect by soil treatment, O: lambsquarters: 0 (Herbicidal rate of 5% or less (almost no effect))
Rice flat sedge
  herbicidal effect on rice flat sedge (E): 3 (Herbicidal rate of 40% or more and less than 70%)
Velvetleaf [22]
  Herbicidal effect by soil treatment, M: velvetleaf: 0 (Herbicidal rate of 5% or less (almost no effect))

## CCCC(=O)Oc1c(C)nn(C)c(=O)c1-c1c(-c2ccc(F)cc2OCC)sc2cc(Cl)c(Cl)cc12 [5-054]
Persian speedwell [1]
  R: persian speedwell, herbicidal effect grade: 0 (Herbicidal rate of 5% or less (almost no effect))
Chinese sprangletop
  herbicidal effect on Chinese sprangletop (D): 2 (Herbicidal rate of 20% or more and less than 40%)
Redroot pigweed [2]
  N: redroot pigweed, herbicidal effect grade: 0 (Herbicidal rate of 5% or less (almost no effect))
Southern crabgrass [4]
  F: southern crabgrass, herbicidal effect grade: 0 (Herbicidal rate of 5% or less (almost no effect))
Barnyard grass [5]; [25]
  herbicidal effect on barnyard grass (H): 4 (Herbicidal rate of 70% or more and less than 90%)
Italian ryegrass [6]
  K: Italian ryegrass, herbicidal effect grade: 0 (Herbicidal rate of 5% or less (almost no effect))
Lambsquarters [7]; [25]
  herbicidal effect on lambsquarters (O): 3 (Herbicidal rate of 40% or more and less than 70%)
Blackgrass [8]; [25]
  herbicidal effect on blackgrass (J): 0 (Herbicidal rate of 5% or less (almost no effect))
Blackgrass [9]
  J: blackgrass, herbicidal effect grade: 0 (Herbicidal rate of 5% or less (almost no effect))
chickweed
  P: chickweed, herbicidal effect grade: 2 (Herbicidal rate of 20% or more and less than 40%)
Windgrass [10]; [25]
  herbicidal effect on windgrass (L): 1 (Herbicidal rate of 5% or more and less than 20%)
Velvetleaf [11]; [25]
  herbicidal effect on velvetleaf (M): 4 (Herbicidal rate of 70% or more and less than 90%)
Barnyard grass [12]
  H: barnyard grass, herbicidal effect grade: 0 (Herbicidal rate of 5% or less (almost no effect))
Barnyard grass [23]
  herbicidal effect on barnyard grass (H): 4 (Herbicidal rate of 70% or more and less than 90%)
Windgrass [13]
  L: windgrass, herbicidal effect grade: 0 (Herbicidal rate of 5% or less (almost no effect))
Green foxtail [14]; [25]
  herbicidal effect on green foxtail (G): 2 (Herbicidal rate of 20% or more and less than 40%)
Persian speedwell [15]; [25]
  herbicidal effect on persian speedwell (R): 4 (Herbicidal rate of 70% or more and less than 90%)
Green foxtail [16]
  G: green foxtail, herbicidal effect grade: 0 (Herbicidal rate of 5% or less (almost no effect))
Southern crabgrass [17]; [25]
  herbicidal effect on southern crabgrass (F): 2 (Herbicidal rate of 20% or more and less than 40%)
Italian ryegrass [18]; [25]
  herbicidal effect on Italian ryegrass (K): 0 (Herbicidal rate of 5% or less (almost no effect))
Wild oat [19]
  I: wild oat, herbicidal effect grade: 0 (Herbicidal rate of 5% or less (almost no effect))
Wild oat [20]; [25]
  herbicidal effect on wild oat (I): 0 (Herbicidal rate of 5% or less (almost no effect))
Lambsquarters [21]
  O: lambsquarters, herbicidal effect grade: 0 (Herbicidal rate of 5% or less (almost no effect))
Rice flat sedge
  herbicidal effect on rice flat sedge (E): 5 (Herbicidal rate of 90% or more (almost completely withered))
Velvetleaf [22]
  M: velvetleaf, herbicidal effect grade: 0 (Herbicidal rate of 5% or less (almost no effect))
